# Test results from PubChem BioAssay (NCI).
#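 Grown in 96-well plates, cells were treated for 48 hours with each compound at five concentrations. Insufficient inhibition: endpoint recorded as highest concentration tested. The concentration for full growth arrest is given as TGI.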
# Key:
# Assay in all cases: growth of human tumour cells (NCI), 48 h
# [1] = test system: NCI-H522 lung
# [2] = test system: KM12 colon
# [3] = test system: SNB-19 CNS
# [4] = test system: CCRF-CEM leukemia
# [5] = test system: SK-OV-3 ovarian
# [6] = test system: MCF7 breast
# [7] = test system: UO-31 renal
# [8] = test system: NCI-H226 lung
# [9] = test system: MOLT-4 leukemia
# [10] = test system: SN12C renal
# [11] = test system: OVCAR-4 ovarian
# [12] = test system: COLO 205 colon
# [13] = test system: SK-MEL-28 melanoma
# [14] = test system: M14 melanoma
# [15] = test system: OVCAR-5 ovarian
# [16] = test system: NCI-H460 lung
# [17] = test system: HCC-2998 colon
# [18] = test system: EKVX NSCLC
# [19] = test system: RPMI-8226 leukemia
# [20] = test system: SK-MEL-2 melanoma
SMILES,TGI [1],TGI [2],TGI [3],TGI [4],TGI [5],TGI [6],TGI [7],TGI [8],TGI [9],TGI [10],TGI [11],TGI [12],TGI [13],TGI [14],TGI [15],TGI [16],TGI [17],TGI [18],TGI [19],TGI [20]
O=C(N/C(=C/c1ccc(Cl)cc1)c1nc2ccccc2c(=O)n1Nc1ccc([N+](=O)[O-])cc1[N+](=O)[O-])c1ccccc1,> 100 µM,> 100 µM,> 100 µM,> 100 µM,> 100 µM,> 100 µM,> 100 µM,> 100 µM,> 100 µM,> 100 µM,> 100 µM,> 100 µM,> 100 µM,> 100 µM,> 100 µM,> 100 µM,> 100 µM,–,–,–
COC(=O)/C(=N\O)C(C(=O)C=C(C)C)C(=O)C(=O)Nc1ccccc1C (configuration not stated),> 100 µM,> 100 µM,> 100 µM,> 100 µM,> 100 µM,–,> 100 µM,> 100 µM,> 100 µM,> 100 µM,> 100 µM,> 100 µM,> 100 µM,> 100 µM,> 100 µM,> 100 µM,> 100 µM,> 100 µM,> 100 µM,> 100 µM
COc1cc(C2C(Cl)C(=O)N2NC(=O)Cc2ccccc2)ccc1O (configuration not stated),56.3 µM,> 100 µM,> 100 µM,> 100 µM,> 100 µM,–,> 100 µM,> 100 µM,> 100 µM,> 100 µM,> 100 µM,> 100 µM,> 100 µM,> 100 µM,> 100 µM,> 100 µM,> 100 µM,> 100 µM,> 100 µM,> 100 µM
CC1(C)O[C@@H](CP(c2ccccc2)c2ccccc2)[C@H](CP(c2ccccc2)c2ccccc2)O1,12.8 µM,54.7 µM,72.2 µM,> 100 µM,> 100 µM,–,–,51.1 µM,> 100 µM,18.7 µM,> 100 µM,12.4 µM,28 µM,22.7 µM,54.7 µM,> 100 µM,–,29.4 µM,59.1 µM,–
CCCCCn1cnc2c1S(=O)(=O)N(C)C(NC(=O)c1ccccc1)=N2,> 100 µM,> 100 µM,> 100 µM,> 100 µM,> 100 µM,–,> 100 µM,> 100 µM,> 100 µM,> 100 µM,> 100 µM,> 100 µM,> 100 µM,–,–,> 100 µM,> 100 µM,> 100 µM,> 100 µM,> 100 µM
O=C1C2Nc3ccccc3SC2C(=O)N1c1cccc([N+](=O)[O-])c1 (configuration not stated),> 100 µM,> 100 µM,> 100 µM,> 100 µM,> 100 µM,–,> 100 µM,> 100 µM,> 100 µM,> 100 µM,> 100 µM,> 100 µM,> 100 µM,> 100 µM,> 100 µM,> 100 µM,> 100 µM,> 100 µM,> 100 µM,> 100 µM
N#C/C(=C\c1ccc(O)cc1O)C(N)=O,> 100 µM,> 100 µM,> 100 µM,> 100 µM,> 100 µM,–,> 100 µM,> 100 µM,> 100 µM,> 100 µM,> 100 µM,26.5 µM,> 100 µM,> 100 µM,> 100 µM,> 100 µM,> 100 µM,> 100 µM,> 100 µM,> 100 µM
COc1ccc(/C(Cl)=C/c2ccc(Cl)c(Cl)c2)cc1,41.1 µM,–,> 100 µM,47.8 µM,> 100 µM,–,> 100 µM,53.2 µM,37 µM,> 100 µM,> 100 µM,54 µM,> 100 µM,> 100 µM,–,–,43.2 µM,61.8 µM,53.9 µM,–
Cn1c2c(cc(-c3ccccc3)c1=O)COc1ccccc1-2,52.3 µM,29 µM,> 100 µM,57.5 µM,86.8 µM,–,63.3 µM,> 100 µM,47.2 µM,> 100 µM,> 100 µM,> 100 µM,84.6 µM,94.4 µM,54.1 µM,70.7 µM,> 100 µM,> 100 µM,42.1 µM,30.4 µM
CC(C)c1cccc(C(C)C)c1NC1=CC(=O)C(=O)c2ccccc21,> 100 µM,> 100 µM,> 100 µM,> 100 µM,> 100 µM,–,> 100 µM,> 100 µM,> 100 µM,> 100 µM,–,> 100 µM,> 100 µM,> 100 µM,> 100 µM,> 100 µM,> 100 µM,> 100 µM,> 100 µM,> 100 µM
Cc1nc(N)sc1C(=O)/C=C/c1ccc([N+](=O)[O-])cc1,> 100 µM,> 100 µM,> 100 µM,> 100 µM,> 100 µM,–,> 100 µM,–,> 100 µM,> 100 µM,–,> 100 µM,> 100 µM,–,> 100 µM,> 100 µM,> 100 µM,> 100 µM,> 100 µM,> 100 µM
COCC12CC(CC1=O)C1C2ON2c3ccccc3C(=O)C12c1ccccc1 (configuration not stated),> 100 µM,–,> 100 µM,> 100 µM,> 100 µM,–,> 100 µM,> 100 µM,> 100 µM,> 100 µM,> 100 µM,> 100 µM,> 100 µM,> 100 µM,–,–,> 100 µM,> 100 µM,> 100 µM,–
COC(=O)c1cc(C)n(NC(=O)OC(C)(C)C)c1C,> 100 µM,> 100 µM,> 100 µM,> 100 µM,> 100 µM,–,> 100 µM,> 100 µM,> 100 µM,> 100 µM,–,> 100 µM,> 100 µM,> 100 µM,> 100 µM,> 100 µM,> 100 µM,> 100 µM,> 100 µM,> 100 µM
